Measured values taken from patent US20120058989A1, “ANTIBACTERIAL FLUOROQUINOLONE ANALOGS” (Achaogen, Inc., priority 2008, published 2012).
Values after ≈ are worked out from the molar mass of the structure shown. Read-outs that look alike come from different tables or passages of the source.

What was measured:
Assay in all cases: MIC, CLSI broth microdilution
Assay type in all cases: cell-based
[1] = system: S. aureus ASAU1031 (Fluoroquinolone-resistant); settings: for MIC: Staphylococcus aureus; for MIC ASAU 1031: Table 2
In short: (§1)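 Test compounds were diluted two-fold at 2× strength in Mueller Hinton Broth, then combined 1:1 with saline-suspended bacteria from an overnight agar colony to reach 5×10^5 CFU/mL. Incubation followed at 35° C. for 20 hours in ambient air, per CLSI reference methods.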

[2] = system: A. baumannii AABA1009 (Fluoroquinolone-resistant); settings: for MIC: Acinetobacter baumannii, Table 2, read-out: MIC AABA 1009; for MIC AABA 1009: Table 2
In short: as §1

[3] = system: S. aureus ASAU001 (Fluoroquinolone-susceptible, ATCC29213); settings: for MIC: Staphylococcus aureus; for MIC ASAU 001: Table 2
In short: as §1

[4] = system: S. pneumoniae ASPN001 (Fluoroquinolone-susceptible, ATCC49619); settings: for MIC: Streptococcus pneumoniae; for MIC ASPN 001: Table 2
In short: as §1

[5] = system: E. coli AECO001 (Fluoroquinolone susceptible, ATCC25922); settings: for MIC: Escherichia coli
In short: as §1

[6] = system: P. aeruginosa APAE054 (Fluoroquinolone-resistant); settings: for MIC: Pseudomonas aeruginosa; for MIC APAE 054: Table 2
In short: as §1

[7] = system: S. pneumoniae ASPN1018 (Fluoroquinolone-resistant); settings: Streptococcus pneumoniae, Table 3
In short: as §1

[8] = system: S. aureus ASAU1033 (Fluoroquinolone-resistant); settings: Staphylococcus aureus, Table 3
In short: as §1

[9] = system: A. baumannii AABA1020 (Fluoroquinolone-resistant); settings: Acinetobacter baumannii, Table 3
In short: as §1

[10] = system: S. aureus ASAU002 (Fluoroquinolone-susceptible, ATCC33591 (MRSA)); settings: Staphylococcus aureus, Table 3
In short: as §1

[11] = system: E. coli AECO086 (Fluoroquinolone-resistant); settings: Escherichia coli, Table 3
In short: as §1

[12] = system: P. aeruginosa APAE001 (Fluoroquinolone-susceptible, ATCC27853); settings: for MIC: Pseudomonas aeruginosa; for MIC APAE 001: Table 2
In short: as §1

[13] = system: S. pneumoniae ASPN002 (Fluoroquinolone-susceptible, ATCC10813); settings: Streptococcus pneumoniae, Table 3
In short: as §1

[14] = system: E. coli AECO002 (Fluoroquinolone susceptible); settings: Escherichia coli, Table 3
In short: as §1

[15] = system: S. pneumoniae ASPN1027 (Fluoroquinolone-resistant); settings: for MIC: Streptococcus pneumoniae; for MIC ASPN 1027: Table 2
In short: as §1

[16] = system: P. aeruginosa APAE002 (Fluoroquinolone susceptible); settings: Pseudomonas aeruginosa, Table 3
In short: as §1

[17] = system: E. coli AECO066 (Fluoroquinolone-resistant); settings: for MIC: Escherichia coli; for MIC AECO 066: Table 2
In short: as §1

[18] = system: A. baumannii AABA1065 (Fluoroquinolone-susceptible); settings: for MIC: Acinetobacter baumannii; for MIC AABA 1065: Table 2
In short: as §1

[19] = Table 2, read-out: MIC ASAU 1031
[20] = Table 2, read-out: MIC ASAU 001
[21] = Table 2, read-out: MIC ASPN 001
[22] = Table 2, 35° C., 20 hours, read-out: MIC AECO 001
[23] = Table 2, read-out: MIC APAE 054
[24] = Table 2, read-out: MIC APAE 001
[25] = Table 2, read-out: MIC ASPN 1027
[26] = Table 2, read-out: MIC AECO 066
[27] = Table 2, read-out: MIC AABA 1065

SMILES	MIC [1, 19]	MIC [2]	MIC [3, 20]	MIC [4, 21]	MIC [5, 22]	MIC [6, 23]	MIC [12, 24]	MIC [15, 25]	MIC [17, 26]	MIC [18, 27]	MIC ASAU 1031 [1]	MIC AABA 1009 [2]	MIC APAE 054 [6]	MIC APAE 001 [12]	MIC ASPN 1027 [15]	MIC AECO 066 [17]	MIC ASAU 001 [3]	MIC ASPN 001 [4]	MIC AECO 001 ([5]; Table 2, 35° C., 20 hours)	MIC AABA 1065 [18]	further results
O=C(O)c1cn(C2CC2)c2c3c(c(F)cc2c1=O)N1CCCC1CC(O)C3O (stereo not drawn) [27/9, 4-Cyclopropyl-12-fluoro-5,6-dihydroxy-1-oxo-4,5,6,7,7a,8,9,10-octahydro-1H-pyrrolo[1′,2′:1,7]azepino[2,3-h]quinoline-2-carboxylic acid]	–	–	–	–	–	–	–	–	–	–	C (MIC's of greater than 8.0 μg/mL = C)	C (MIC's of greater than 8.0 μg/mL = C)	C (MIC's of greater than 8.0 μg/mL = C)	C (MIC's of greater than 8.0 μg/mL = C)	C (MIC's of greater than 8.0 μg/mL = C)	C (MIC's of greater than 8.0 μg/mL = C)	B (MIC's of greater than 1.0 μg/mL to 8.0 μg/mL = B)	C (MIC's of greater than 8.0 μg/mL = C)	B (MIC's of greater than 1.0 μg/mL to 8.0 μg/mL = B)	B (MIC's of greater than 1.0 μg/mL to 8.0 μg/mL = B)	–
O=C1Cc2c(c(F)cc3c(=O)c(C(=O)O)cn(C4CC4)c23)N2CCCC2C1 (stereo not drawn) [27/10, 4-Cyclopropyl-12-fluoro-1,6-dioxo-4,5,6,7,7a,8,9,10-octahydro-1H-pyrrolo[1′,2′:1,7]azepino[2,3-h]quinoline-2-carboxylic acid]	–	–	–	–	–	–	–	–	–	–	C (MIC's of greater than 8.0 μg/mL = C)	C (MIC's of greater than 8.0 μg/mL = C)	C (MIC's of greater than 8.0 μg/mL = C)	C (MIC's of greater than 8.0 μg/mL = C)	C (MIC's of greater than 8.0 μg/mL = C)	C (MIC's of greater than 8.0 μg/mL = C)	B (MIC's of greater than 1.0 μg/mL to 8.0 μg/mL = B)	C (MIC's of greater than 8.0 μg/mL = C)	B (MIC's of greater than 1.0 μg/mL to 8.0 μg/mL = B)	B (MIC's of greater than 1.0 μg/mL to 8.0 μg/mL = B)	–
CON=C1Cc2c(c(F)cc3c(=O)c(C(=O)O)cn(C4CC4)c23)N2CCCC2C1 (stereo not drawn) [27/11, 4-Cyclopropyl-12-fluoro-6-(methoxyimino)-1-oxo-4,5,6,7,7a,8,9,10-octahydro-1H-pyrrolo[1′,2′:1,7]azepino[2,3-h]quinoline-2-carboxylic acid]	–	–	–	–	–	–	–	–	–	–	C (MIC's of greater than 8.0 μg/mL = C)	C (MIC's of greater than 8.0 μg/mL = C)	C (MIC's of greater than 8.0 μg/mL = C)	C (MIC's of greater than 8.0 μg/mL = C)	C (MIC's of greater than 8.0 μg/mL = C)	C (MIC's of greater than 8.0 μg/mL = C)	A (MIC's of 1.0 μg/mL or less = A)	B (MIC's of greater than 1.0 μg/mL to 8.0 μg/mL = B)	B (MIC's of greater than 1.0 μg/mL to 8.0 μg/mL = B)	B (MIC's of greater than 1.0 μg/mL to 8.0 μg/mL = B)	–
O=C(O)c1cn(C2CC2)c2c3c(c(F)cc2c1=O)N1CCCC1CC(=NO)C3 (stereo not drawn) [27/12, 4-Cyclopropyl-12-fluoro-6-(hydroxyimino)-1-oxo-4,5,6,7,7a,8,9,10-octahydro-1H-pyrrolo[1′,2′:1,7]azepino[2,3-h]quinoline-2-carboxylic acid]	–	–	–	–	–	–	–	–	–	–	B (MIC's of greater than 1.0 μg/mL to 8.0 μg/mL = B)	C (MIC's of greater than 8.0 μg/mL = C)	C (MIC's of greater than 8.0 μg/mL = C)	C (MIC's of greater than 8.0 μg/mL = C)	C (MIC's of greater than 8.0 μg/mL = C)	C (MIC's of greater than 8.0 μg/mL = C)	A (MIC's of 1.0 μg/mL or less = A)	B (MIC's of greater than 1.0 μg/mL to 8.0 μg/mL = B)	B (MIC's of greater than 1.0 μg/mL to 8.0 μg/mL = B)	B (MIC's of greater than 1.0 μg/mL to 8.0 μg/mL = B)	–
CO/N=C1\CN(c2nc3c(cc2F)c(=O)c(C(=O)O)cn3C2CC2)CC1CN (stereo not drawn) [Gemifloxacin, reference compound]	> 8 µg/mL	> 8 µg/mL	≤ 1 µg/mL	≤ 1 µg/mL	≤ 1 µg/mL	> 8 µg/mL	≤ 1 µg/mL	1 to 8 µg/mL (≈ 2.57 to 20.5 µM)	> 8 µg/mL	≤ 1 µg/mL	–	–	–	–	–	–	–	–	–	–	–

Second part, led by results:

MIC [1, 19]	MIC [2]	MIC [3, 20]	MIC [4, 21]	MIC [5, 22]	MIC [6, 23]	MIC [12, 24]	MIC [15, 25]	MIC [17, 26]	MIC [18, 27]	MIC ASAU 1031 [1]	MIC AABA 1009 [2]	MIC APAE 054 [6]	MIC APAE 001 [12]	MIC ASPN 1027 [15]	MIC AECO 066 [17]	SMILES	MIC ASAU 001 [3]	MIC ASPN 001 [4]	MIC AECO 001 ([5]; Table 2, 35° C., 20 hours)	MIC AABA 1065 [18]	further results
1 to 8 µg/mL (≈ 2.69 to 21.5 µM)	> 8 µg/mL	≤ 1 µg/mL	≤ 1 µg/mL	≤ 1 µg/mL	> 8 µg/mL	1 to 8 µg/mL (≈ 2.69 to 21.5 µM)	1 to 8 µg/mL (≈ 2.69 to 21.5 µM)	1 to 8 µg/mL (≈ 2.69 to 21.5 µM)	≤ 1 µg/mL	–	–	–	–	–	–	N[C@H]1C[C@H]2CCCc3c(c(F)cc4c(=O)c(C(=O)O)cn(C5CC5)c34)N2C1 [3/15]	–	–	–	–	MIC ([1]; Table 3): 2 to 8 µg/mL (≈ 5.38 to 21.5 µM); MIC ([3]; Table 3): < 1 µg/mL; MIC ([4]; Table 3): < 1 µg/mL; MIC ([5]; Table 3): < 1 µg/mL; MIC ([6]; Table 3): > 8 µg/mL; MIC [7]: 1 to 2 µg/mL (≈ 2.69 to 5.38 µM); MIC [8]: > 8 µg/mL; MIC [9]: > 8 µg/mL; MIC [10]: < 1 µg/mL; MIC [11]: 2 to 8 µg/mL (≈ 5.38 to 21.5 µM); MIC ([12]; Table 3): < 1 µg/mL; MIC [13]: < 1 µg/mL; MIC [14]: < 1 µg/mL; MIC ([15]; Table 3): 2 to 8 µg/mL (≈ 5.38 to 21.5 µM); MIC [16]: < 1 µg/mL; MIC ([17]; Table 3): 2 to 8 µg/mL (≈ 5.38 to 21.5 µM); MIC ([18]; Table 3): < 1 µg/mL
1 to 8 µg/mL (≈ 2.71 to 21.7 µM)	> 8 µg/mL	≤ 1 µg/mL	≤ 1 µg/mL	≤ 1 µg/mL	> 8 µg/mL	≤ 1 µg/mL	1 to 8 µg/mL (≈ 2.71 to 21.7 µM)	> 8 µg/mL	≤ 1 µg/mL	–	–	–	–	–	–	N[C@H]1CC2CC=Cc3c(c(F)cc4c(=O)c(C(=O)O)cn(C5CC5)c34)N2C1 (stereo partly drawn) [32 /5]	–	–	–	–	–
> 8 µg/mL	> 8 µg/mL	≤ 1 µg/mL	1 to 8 µg/mL (≈ 2.79 to 22.3 µM)	≤ 1 µg/mL	> 8 µg/mL	> 8 µg/mL	> 8 µg/mL	> 8 µg/mL	1 to 8 µg/mL (≈ 2.79 to 22.3 µM)	–	–	–	–	–	–	O=C(O)c1cn(C2CC2)c2c3c(c(F)cc2c1=O)N1CCCC1CCO3 (stereo not drawn) [32/1]	–	–	–	–	–
> 8 µg/mL	> 8 µg/mL	≤ 1 µg/mL	≤ 1 µg/mL	≤ 1 µg/mL	> 8 µg/mL	≤ 1 µg/mL	> 8 µg/mL	> 8 µg/mL	≤ 1 µg/mL	–	–	–	–	–	–	N[C@H]1C[C@H]2CCOc3c(c(F)cc4c(=O)c(C(=O)O)cn(C5CC5)c34)N2C1 [32/2]	–	–	–	–	–
> 8 µg/mL	> 8 µg/mL	≤ 1 µg/mL	≤ 1 µg/mL	≤ 1 µg/mL	> 8 µg/mL	1 to 8 µg/mL (≈ 2.69 to 21.5 µM)	1 to 8 µg/mL (≈ 2.69 to 21.5 µM)	> 8 µg/mL	> 8 µg/mL	–	–	–	–	–	–	N[C@H]1CC2CCCc3c(c(F)cc4c(=O)c(C(=O)O)cn(C5CC5)c34)N2C1 (stereo partly drawn) [32/4]	–	–	–	–	–
